Measurements taken from US5087561A, “Humoral hypercalcemic factor antagonists modified at position 13 by biotin” (Merck & Co., Inc., priority 1990, dated 1992).

Columns and labels:
[1] = target: T1, PTH receptors (bovine renal cortical plasma membranes) (Bos taurus, UniProt Q1LZF7); test: Bovine renal membrane binding assay; settings: radioligand [Nle^8, 8, (^125 I)-Tyr^34 ]bPTH (1-34)NH2, 30 min, 21° C
T1 construct: from tissue; host or cells: bovine renal cortex plasma membranes
T1 sequence (Q1LZF7 29-589): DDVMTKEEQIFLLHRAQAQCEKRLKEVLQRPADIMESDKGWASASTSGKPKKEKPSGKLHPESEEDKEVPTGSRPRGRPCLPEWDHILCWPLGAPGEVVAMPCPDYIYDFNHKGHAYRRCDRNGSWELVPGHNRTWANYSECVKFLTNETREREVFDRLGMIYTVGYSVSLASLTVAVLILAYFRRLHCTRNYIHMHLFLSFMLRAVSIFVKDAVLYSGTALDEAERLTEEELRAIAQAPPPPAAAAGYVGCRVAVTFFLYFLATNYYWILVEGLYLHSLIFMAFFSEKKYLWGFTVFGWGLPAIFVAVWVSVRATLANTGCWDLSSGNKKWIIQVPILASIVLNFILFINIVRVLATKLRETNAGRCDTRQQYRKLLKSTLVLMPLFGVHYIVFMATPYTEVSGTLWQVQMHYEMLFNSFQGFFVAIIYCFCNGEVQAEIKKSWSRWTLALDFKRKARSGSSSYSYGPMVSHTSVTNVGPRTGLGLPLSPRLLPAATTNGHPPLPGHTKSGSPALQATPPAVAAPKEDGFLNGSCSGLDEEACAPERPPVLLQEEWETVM
Protocol: HCF analogues were analysed in a new receptor assay reported in Goldman et al., Endocrin 123: 1468-1475 (1988). The binding assay used [Nle^8, 8, (^125 I)-Tyr^34 ]bPTH (1-34)NH2 which was purified by HPLC (Novapak C18, 32-35% CH3 CN in 0.1% TFA) and was stored as aliquots in 25 mM TrisHCl/1%BSA at -70° C. Bovine renal cortical plasma membranes were incubated with radioligand (25,000 cpm) in a Tris-containing buffer (250 μl) for 30 min at room temperature 21° C. Once equilibrium was reached, bound and free radioligand were separated by centrifugation. High specific binding (85%) to bovine renal cortical membranes was obtained consistently.

[2] = target: T2, PTH receptors (human bone cells) (Homo sapiens, UniProt Q03431); test: Human bone cell binding assay; settings: confluent monolayers, radioligand [Nle^8,18,(^125 I)-Tyr^34 ]bPTH(1-34)NH2, room temperature, 4 hours
T2 construct: endogenous in cells
T2 sequence (Q03431 27-593): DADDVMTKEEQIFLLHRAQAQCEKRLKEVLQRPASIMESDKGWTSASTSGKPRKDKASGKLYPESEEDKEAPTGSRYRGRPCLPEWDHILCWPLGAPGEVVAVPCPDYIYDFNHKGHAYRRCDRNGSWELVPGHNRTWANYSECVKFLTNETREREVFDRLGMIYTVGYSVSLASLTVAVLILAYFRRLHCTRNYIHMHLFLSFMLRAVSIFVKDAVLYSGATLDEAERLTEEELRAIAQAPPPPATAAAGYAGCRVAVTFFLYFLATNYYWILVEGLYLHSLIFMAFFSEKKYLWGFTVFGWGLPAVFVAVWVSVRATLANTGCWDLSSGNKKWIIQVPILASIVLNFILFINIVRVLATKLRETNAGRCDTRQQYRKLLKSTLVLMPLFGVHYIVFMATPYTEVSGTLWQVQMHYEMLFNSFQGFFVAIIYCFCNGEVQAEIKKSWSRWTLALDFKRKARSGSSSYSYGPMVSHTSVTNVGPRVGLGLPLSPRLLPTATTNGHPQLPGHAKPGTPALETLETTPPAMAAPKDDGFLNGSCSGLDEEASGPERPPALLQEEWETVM
Protocol: HCF analogues were analyzed in a new receptor binding assay as follows. Cells were plated in 24-well dishes in RPMl 1640 medium supplemented with 1% BSA, 20 mM HEPES, pH 7.5, and 0.1% azide. [Nle^8,18,(^125 I)-Tyr^34 ]bPTH(1-34)NH2 (50,000 cpm/well) was added to confluent monolayers in the absence or presence of varying concentrations of analogue under investigation in a final volume of 0.25 ml. Cultures were incubated at room temperature for 4 hours. Reactions were terminated by placing the cultures on ice and washing 4 times with ice cold PBS. Radioactivity associated with the cells was recovered by solubilizing the cells with 1 ml of 1N NaOH.

[3] = tested on: adenylate cyclase, human osteosarcoma cell line, B10; test: Human bone cell (B 10) adenylate cyclase assay; type: cell-based; settings: inhibition of cAMP stimulation by lnM [Nle^8,18, Tyr^34 ] bPTH(1-34) NH2; B10 cells
Protocol: HCF analogues were analyzed in a human osteosarcoma cell line, B10, for the ability to inhibit cAMP stimulation by lnM [Nle^8,18, Tyr^34 ] bPTH(1-34) NH2 by the method described by R. J. Majeska et al, Endocrinol. 107, 1494 (1980).
Adenylate cyclase assay: Confluent cultures were rinsed in CMFH and scraped into 0.5-1.0 ml buffer (10 mM Tris-HCl, pH 7.8; 1 mM dithiothreitol, 0.2 mM MgCl2; and 0.5 mM EGTA) and homogenized with 10 strokes of a Dounce homogenizer (pestle A). Adenylate cyclase activity was measured by the method of Salomon et al., (18) on samples of either homogenate or membrane pellets obtained by centrifugation of diluted homogenates at 47,000×g for 30 min. The enzyme assay mix contained 0.1-0.3 mM [α-^32 P]ATP, MgCl2, and guanine nucelotides, as specified in the tables and FIGURES, and 1 mM cAMP, 5 mM phosphocreatine, and 100 U/ml creatine phosphokinase. Purified bovine PTH-(1-84), generously provided by Drs. H. Keutmann and M. Rosenblatt, Massachusetts General Hospital, Boston, MA, was dissolved and diluted in 1.5 ml/liter acetic acid containing 1 g/liter bovine serum albumin (Pentex fraction V, Miles Laboratories, Elkhart, IN). L-Isoproterenol bitarate (Sigma Chemical Co., St. Louis, MO) was prepared immediately before use and dissolved and diluted in assay buffer. Control tubes were assayed in the presence of diluent alone.

Kb [1]: 0.0226 µM | Ki [2]: 0.0373 µM
SMILES: CC[C@H](C)[C@H](NC(=O)[C@H](CC(C)C)NC(=O)[C@H](Cc1c[nH]cn1)NC(=O)[C@H](Cc1c[nH]cn1)NC(=O)[C@H](CC(C)C)NC(=O)[C@H](Cc1ccccc1)NC(=O)[C@H](Cc1ccccc1)NC(=O)[C@H](CCCNC(=N)N)NC(=O)[C@H](CCCNC(=N)N)NC(=O)[C@H](CCCNC(=N)N)NC(=O)[C@H](CC(C)C)NC(=O)[C@H](CC(=O)O)NC(=O)[C@H](CCC(N)=O)NC(=O)[C@@H](NC(=O)[C@H](CO)NC(=O)[C@H](CCCCNC(=O)CCNC(=O)CCCC[C@@H]1SC[C@@H]2NC(=O)N[C@@H]21)NC(=O)[C@@H](Cc1c[nH]c2ccccc12)NC(=O)[C@H](CC(C)C)NC(=O)[C@H](CC(=O)O)NC(=O)[C@H](Cc1c[nH]cn1)NC(=O)[C@H](CC(C)C)NC(=O)[C@@H](N)CC(C)C)[C@@H](C)CC)C(=O)N[C@@H](C)C(=O)N[C@@H](CCC(=O)O)C(=O)N[C@H](C(=O)N[C@@H](Cc1c[nH]cn1)C(=O)N[C@H](C(=O)N[C@@H](C)C(N)=O)[C@@H](C)O)[C@@H](C)CC [[Leu^11,D-Trp^12,Lys^13 (ε-(N-biotinyl β-Ala))]hHCF(7-34)NH2]
Ki [3]: 0.0076 µM
